Earlier results, collected in US20250262182A1, “Beverage Composition and Process” (priority 2020, published 2025).
Like-named read-outs stand apart in the source and are kept apart here.

In the case of NC(=O)NCCC[C@H](N)C(=O)O [L-citrulline], the Adverse effects (dosages in the range of 6 g to 10 g) is given as “mild gastrointestinal upset”, the Adverse effects (dosages in the range of 10 g to 15 g) is given as “stomach discomfort, bloating, or diarrhea” and the Adverse effects (dosages over 20 g) is given as “electrolyte imbalance and/or headaches”. The Tolerability (dosages up to 6 g, most people) was “generally well tolerated”.
